Measured values taken from patent US4868171A, “Antibiotic A 40926 N-acylaminoglucuronyl aglycons and antiobiotic A 40926 aglycon” (Gruppo Lepetit S.p.A., priority 1986, dated 1989).
Converted amounts (≈) assume the structure as drawn.

Tests used:
[1] = test system: Staph. epidermidis L147 ATCC 12228 (coagulase negative); assay: MIC determination, standard dilution test (Isosensitest broth); format: cell-based; details: Staphylococcus epidermidis, ATCC12228, 24 h
[2] = test system: Propionibacterium acnes L1014 ATCC 6919; assay: MIC determination, agar dilution (Wilkins-Chalgren agar, anaerobic); format: cell-based; details: Cutibacterium acnes, ATCC6919, 48 h
[3] = test system: Clostridium perfringens L290 ISS 30543; assay: microbe, parasite or virus in culture; format: cell-based; details: L290ISS30543, 24 h
[4] = test system: Strep. pneumoniae L44 UC41; assay: MIC determination, standard dilution test (Todd-Hewitt broth); format: cell-based; details: Streptococcus pneumoniae, 24 h
[5] = test system: Staph. aureus L165; assay: MIC determination, standard dilution test (Isosensitest broth); format: cell-based; details: Staphylococcus aureus
[6] = test system: Clostridium difficile L1363 ATCC 9689; assay: MIC determination, agar dilution (Wilkins-Chalgren agar, anaerobic); format: cell-based; details: Clostridioides difficile, ATCC9689, 48 h
[7] = test system: Strep. faecalis L149 ATCC 7080; assay: MIC determination, standard dilution test (Isosensitest broth); format: cell-based; details: Enterococcus faecalis, ATCC7080, 24 h
[8] = test system: Neisseria gonorrhoeae L997 ISM68/126; assay: MIC determination, standard dilution test (GC base broth + 1% Isovitalex); format: cell-based; details: L997ISM68/126, 48 h, CO2-enriched
[9] = test system: Strep. pyogenes L49 C203; assay: MIC determination, standard dilution test (Todd-Hewitt broth); format: cell-based; details: Streptococcus pyogenes, L49C203, 24 h
[10] = test system: Strep. mitis L796 (clinical isolate); assay: as above; format: cell-based; details: Streptococcus mitis, 24 h
[11] = test system: Mycoplasma gallisepticum L431 S6 Weybridge; assay: MIC determination, standard dilution test (PPLO broth); format: cell-based; details: Mycoplasmoides gallisepticum; PPLO broth + 10% horse serum + 1% glucose, 48 h
[12] = test system: S. pyogenes C 203 (L 49); assay: Experimental septicemia in the mouse; format: in vivo, CD-1 mice infected with S. pyogenes; details: Streptococcus pyogenes, sc, 168 h, subcutaneous immediately after infection, survival on 7th day
Procedure: The antimicrobial activity of the compounds of the invention is confirmed also in experimental septicemia in the mouse. Control and treatment groups contained ten CD-1 mice (Charles River) weighing 18-22 g. They were infected intraperitoneally with 0.5 ml of bacterial suspension prepared by diluting an overnight culture of S. pyogenes C 203 (L 49) with sterile peptonized saline. Inocula were adjusted so that untreated animals died of septicemia within 48 h. The compounds to be tested were administered subcutaneously immediately after infection. On the 7th day, the ED50 in mg/kg was calculated by the method of Spearman and Karber (D. J. Finney "Statistical Methods in Biological Assay", Griffin, page 524, 1952) from the percentage of surviving animals at each dose.

[13] = test system: Escherichia coli L47 SKF 12140; assay: MIC determination, standard dilution test (Isosensitest broth); format: cell-based; details: L47SKF12140, 24 h
[14] = test system: Haemophilus influenzae L 970 type b ATCC 19418; assay: MIC determination, standard dilution test (Brain Heart broth + 1% Supplement C); format: cell-based; details: ATCC19418, 48 h
[15] = test system: Bacteroides fragilis L1010 ATCC 23745; assay: MIC determination, agar dilution (Wilkins-Chalgren agar, anaerobic); format: cell-based; details: ATCC23745, 48 h

CNC1C(=O)NC2Cc3ccc(cc3)Oc3cc4cc(c3O)Oc3ccc(cc3Cl)C(O)C3NC(=O)C(NC(=O)C4NC(=O)C(NC2=O)c2cc(cc(O)c2Cl)Oc2cc1ccc2O)c1ccc(O)c(c1)-c1c(O)cc(O)cc1C(C(=O)O)NC3=O (stereo not shown) [Antibiotic A 40926 aglycon]
MIC [1]: 0.13 µg/mL (≈ 0.107 µM) | MIC [2]: 1 µg/mL (≈ 0.824 µM) | MIC [3]: 0.25 µg/mL (≈ 0.206 µM) | MIC [4]: 1 µg/mL (≈ 0.824 µM) | MIC ([5]; L165, 24 h, Staph. aureus L165 (10^6 cfu/ml)): 0.25 µg/mL (≈ 0.206 µM) | MIC ([5]; Staph. aureus L165, 24 h, about 10^4-10^5 cfu/ml): 0.13 µg/mL (≈ 0.107 µM) | MIC [6]: 1 µg/mL (≈ 0.824 µM) | MIC [7]: 0.5 µg/mL (≈ 0.412 µM) | MIC [8]: 16 µg/mL | MIC [9]: 0.5 µg/mL (≈ 0.412 µM) | MIC [10]: 0.5 µg/mL (≈ 0.412 µM) | MIC [11]: > 128 µg/mL | ED50 [12]: 6.2 mg/kg | MIC [13]: 128 µg/mL (≈ 106 µM) | MIC [14]: 32 µg/mL | MIC [15]: 32 µg/mL (≈ 26.4 µM)
